Laboratory results as given in patent US8975275B2, “Use of chemotherapeutic agents” (priority 1999, dated 2015).
Where a name gives a salt, the structure may show the parent alone.

Key:
[1] = tested on: Staphylococcus aureus strains; settings: microorganisms isolated from the root canals after topical antibiotic treatment; cited from earlier work
[2] = tested on: pulpitis due to carious diseases; assay: Topical treatment of pulpitis due to carious diseases (patient cases); format: in vivo, human
Text: This is of great importance because, for example in the case of caries profunda, it is always necessary to decide whether softened residual dentin can be left over the pulp. By virtue of complete elimination of the microbes present, there is now a novel method of treatment wherein a thin softened dentin covering can be left if the compounds of formula (I) or formula (II) are used. This method of treatment makes it possible to free infected dentin layers of microbes and to stop pulp infections. This means that pain reactions are eliminated and pulp infections are to a certain extent cured. The pulp remains vital. The topical application of the compounds of formula (I) or formula (II) followed the removal of the carious dentin. The compounds of formula (I) or formula (II) were applied for example in aqueous solution, in a form of gelatinous consistency or on an inert carrier, for example by means of a cotton wool plug. The overlying cavity was occluded with a cement to seal the margins. The cotton wool plug was left in the cavity for three to six days. The compounds of formula (I) or formula (II) can be used in concentrations of 0.005 mg/ml to 200 mg/ml, Preferred concentrations are those ranging from 0.5 mg/ml to 150 mg/ml and particularly preferred concentrations are those ranging from 10 to 100 mg/ml.

[3] = tested on: periodontal diseases; assay: Topical treatment of periodontal diseases (patient cases); format: in vivo, human
Text: To do this, threads or so-called chips impregnated with solutions or gelatinous preparations of the compounds of formula (I) or formula (II) are inserted in the gingival pocket. A possible alternative is to use medicament carriers in the form of trays covering the teeth and gingiva. Before they are applied, the gelatinous applications of the compounds of formula (I) or formula (II) are instilled into the gingival pockets. In addition, the gel containing the compounds of formula (I) or formula (II) can also be placed in the medicament carrier. This use of medicament carriers is advantageous because the treatment time can be reduced by the rapid onset of action to about 15 to 30 minutes, so the treatment can be carried out directly in the surgery. The compounds of formula (I) or formula (II) can be used in concentrations of 0.005 mg/ml to 200 mg/ml. Preferred concentrations are those ranging from 0.5 mg/ml to 200 mg/ml and particularly preferred concentrations are those ranging from 10 to 150 mg/ml. Periodontal diseases can also be treated by administering the compounds of formula (I) or formula (II) by intraligamental injection, it being possible to use concentrations ranging from 0.005 mg/ml to 200 mg/ml, preferably from 0.5 mg/ml to 200 mg/ml. For the antibiotics commonly used nowadays, such as tetracyclines, an intraligamental injection is not reasonable since these compounds with a predominantly bacteriostatic action are quickly washed out due to the rapid fluid exchange in the periodontal interstice, and cannot develop their action. Tetra-cyclines can therefore only develop their effects via depot formulations. By contrast, the compounds of formula (I) or formula (II) have a very rapid and also bactericidal action, so their residence time in the periodontal interstice is sufficient to destroy the microbes.

[4] = tested on: infected root canal and periapical region; assay: Topical treatment of the infected root canal and the periapical region (patient cases); format: in vivo, human
Experimental: In the clinical use of the compounds of formula (I) or formula (II), the pulp residues are removed first. The preparation of the canals is carried out with minimum discomfort for the patient. The canals are then flushed with hydrogen peroxide, Other methods of disinfection can be omitted. The compounds of formula (I) or formula (II), in a liquid form of administration, are then introduced into the toot canal under pressure using a cannula. The compounds of formula (I) or (II) are then injected in dissolved form or in a gelatinous form of administration. The root canal is subsequently occluded in the crown region, first with a cotton wool plug and then with zinc phosphate cement to seal the margins. If the canals are not gangrenous, the antibiotics remain in the canals for 3 days. […] The compounds of formula (I) or formula (II) can be used in concentrations of 0.005 mg/ml to 200 mg/ml.
In this application technique, which is known from intraligamental anaesthesia, the tooth is completely flooded with the antibacterial solution of the compounds of formula (I) or formula (II) in the entire root region.

[5] = tested on: osseomucosal wounds; assay: Topical treatment of osseomucosal wounds (patient cases); format: in vivo, human
Text: Application is effected by flushing and/or by means of strip inserts impregnated with compounds of formula (I) or formula (II). They are to be used for example for postoperative infections following dentosurgical interventions (extractions). For this purpose the gel containing the compound of formula (I) or formula (II) is syringed directly into the extraction wound or onto a collagen sponge which remains in the extraction wound. The wound is closed for about half an hour by biting on a tampon. Prophylactic applications have been particularly successful after the extraction of teeth with focal infections, Liquid forms of administration suitable for flushing fistulae are those containing the compounds of formula (I) or formula (II) in concentrations of 0.005 mg/ml to 250 mg/ml. Preferred concentrations are those ranging from 0.5 to 100 mg/ml, Forms suitable for coating strips are gels containing the compounds of formula (I) or formula (II), as well as aqueous solutions or suspensions. These applications can contain the compounds of formula (I) or formula (II) in concentrations of 0.005 mg/ml to 200 mg/ml. Preferred concentrations for solutions are those ranging from 0.1 to 50 mg/ml Gelatinous forms of administration in concentrations of 25-150 mg/ml are preferred in the case of strip inserts.

[6] = tested on: bacteraemia; settings: systemic administration ten minutes prior to a dental extraction; cited from earlier work
[7] = tested on: Staphylococcus epidermis; settings: microorganisms isolated from the root canals after topical antibiotic treatment; cited from earlier work

In the case of penicillin, the resistance of strains [1] is given as “majority of Staphylococcus aureus strains were resistant”.
In the case of `O=C(N[C@H](CO)[C@H](O)c1ccc([N+](=O)[O-])cc1)C(Cl)Cl` [chloramphenicol], the resistance of strains [1] is listed as “majority of Staphylococcus aureus strains were resistant”.
With `C[C@@H]1CN(c2c(F)c(N)c3c(=O)c(C(=O)O)cn(C4CC4)c3c2F)C[C@H](C)N1` [sparfloxacin, 5-amino-1-cyclopropyl-7-[(3R,5S)-3,5-dimethyl-1-piperazinyl]-6,8-difluoro-1,4-dihydro-4-oxo-3-quinolinecarboxylic acid] the “clinical finding at check-up” value ([2]; Patient A 1.16, gel 25 mg/ml, repetition of insert, check-up after 14 days) was “patient symptom-free, tooth vital” and the “clinical finding at check-up” value ([2]; Patient A 1.16, tooth 46 reduced vitality, pellet insert gel 25 mg/ml, check-up after 4 days) was “still slight sensitivity to heat”.
In the case of `N[C@@H]1[C@H]2CN(c3nc4c(cc3F)c(=O)c(C(=O)O)cn4-c3ccc(F)cc3F)C[C@@H]12` [trovafloxacin mesylate, 7-(1α,5α,6α-6-amino-3-azabicyclo[3.1.0]hex-3-yl)-1-(2,4-difluorophenyl)-6-fluoro-1,4-dihydro-4-oxo-1,8-naphthyridine-3-carboxylic acid], the “clinical finding at check-up” value ([2]; Patient A 1.15, tooth 44, night pain, pellet insert gel 50 mg/ml, check-up after 9 days) is reported as “patient symptom-free, tooth vital”, the “clinical finding at check-up” value ([3]; Patient B 8, marginal periodontitis entire upper and lower jaw, medicinal splint gel 0.25 mg/ml 10 minutes/day for 6 days, check-up after 6 days) is reported as “patient symptom-free, inflammation phenomena no longer present” and the “clinical finding at check-up” value ([4]; Patient A 3.18, tooth 34 apical periodontitis due to gangrene, gel 100 mg/ml + intraligamental injection 50 mg/ml, check-up after 12 days) is reported as “patient symptom-free”. The “clinical finding at check-up” value ([4]; Patient A 3.19, tooth 11 apical periodontitis due to gangrene simplex, root canal insert solution 50 mg/ml, check-up after 3 weeks) was “patient symptom-free, canal odour-free”.
In the case of `Cc1c(F)c(N2CCNC(C)C2)cc2c1c(=O)c(C(=O)O)cn2C1CC1` (stereo not drawn) [grepafloxacin, 1-cyclopropyl-6-fluoro-1,4-dihydro-5-methyl-7-(3-methyl-1-piperazinyl)-4-oxo-3-quinolinecarboxylic acid], the “clinical finding at check-up” value ([2]; Patient A 1.11, gel 25 mg/ml, after final filling, check-up after 4 weeks) is reported as “tooth vital, patient symptom-free”, the “clinical finding at check-up” value ([2]; Patient A 1.11, tooth 22, pellet insert gel 25 mg/ml, check-up after 5 days) is reported as “patient was symptom-free” and the “clinical finding at check-up” value ([2]; Patient A 1.12, gel 50 mg/ml, after final filling, check-up after 14 days) is reported as “teeth vital, patient symptom-free”. For the same molecule, the “clinical finding at check-up” value ([2]; Patient A 1.12, teeth 22, 23, pellet inserts gel 50 mg/ml, check-up after 1 week) was “teeth symptom-free”, the “clinical finding at check-up” value ([3]; Patient B 7, teeth 14-17 marginal periodontitis, thread insert gel 50 mg/ml + intraligamental injection 50 mg/ml, check-up after 9 days) was “patient symptom-free, gingival regions and pockets inflammation-free” and the “clinical finding at check-up” value ([4]; Patient A 3.16, after root filling, check-up after 1 week) was “patient still symptom-free”. For the same molecule, the “clinical finding at check-up” value ([4]; Patient A 3.16, tooth 46 apical periodontitis, not gangrenous, root canal insert gel 50 mg/ml, check-up after 3 weeks) was “patient symptom-free”, the “clinical finding at check-up” value ([4]; Patient A 3.17, after root filling, check-up after 4 days) was “patient symptom-free” and the “clinical finding at check-up” value ([4]; Patient A 3.17, tooth 32 apical periodontitis due to gangrene, solution 20 mg/ml + gel 20 mg/ml + intraligamental injection 50 mg/ml, check-up after 6 days) was “no gangrenous odour, no bite discomfort”. The “clinical finding at check-up” value ([4]; Patient A 3.23, tooth 34 fistulation, gangrenous, solution 50 mg/ml by paper point + intraligamental injection 50 mg/ml, check-up after 10 days) was “patient symptom-free”, the “clinical finding at check-up” value ([5]; Patient C 8, apical granulomas, extraction (osteotomy), gauze with gel 50 mg/ml, check-up after 3 days) was “patient is symptom-free” and the “clinical finding at check-up” value ([5]; Patient C 9, same combined treatment, after root canal filling, check-up after 2 weeks) was “patient symptom-free”. For the same molecule, the “clinical finding at check-up” value ([5]; Patient C 9, tooth 14 pulpitis purulenta, fistulation, moxifloxacin hydrochloride solution 25 mg/ml flushing + grepafloxacin gel 25 mg/ml canal insert + moxifloxacin hydrochloride gel 25 mg/ml gauze insert, check-up after 6 days) was “patient symptom-free”.
With `C[C@H]1COc2c(N3CCN(C)CC3)c(F)cc3c(=O)c(C(=O)O)cn1c23` [levofloxacin, (3S)-9-fluoro-2,3-dihydro-3-methyl-10-(4-methyl-1-piperazinyl)-7-oxo-7H-pyrido[1,2,3-de]-1,4-benzoxazine-6-carboxylic acid] the “clinical finding at check-up” value ([2]; Patient A 1.14, tooth 13, night pain, pellet inserts gel 50 mg/ml, check-up after 14 days) was “patient symptom-free, tooth vital”.
For `CO/N=C(\C(=O)N[C@@H]1C(=O)N2C(C(=O)O)=C(COC(N)=O)CS[C@H]12)c1ccco1` [cefuroxim], the “frequency of bacteraemia versus the untreated group” value [6] is listed as “lower frequency”.
For `CC[C@H]1OC(=O)[C@H](C)[C@@H](O[C@H]2C[C@@](C)(OC)[C@@H](O)[C@H](C)O2)[C@H](C)[C@@H](O[C@@H]2O[C@H](C)C[C@H](N(C)C)[C@H]2O)[C@](C)(O)C[C@@H](C)C(=O)[C@H](C)[C@@H](O)[C@]1(C)O` [erythromycin], the “increase of resistance after the treatment” value [7] is listed as “three-fold” and the resistance of strains [1] is listed as “majority of Staphylococcus aureus strains were resistant”.
In the case of `NC1CCN(c2nc3c(cc2F)c(=O)c(C(=O)O)cn3-c2ccc(F)cc2F)C1` (stereo not drawn) [tosufloxacin tosylate, 7-(3-amino-1-pyrrolidinyl)-1-(2,4-difluorophenyl)-6-fluoro-1,4-dihydro-4-oxo-1,8-naphthyridine-3-carboxylic acid], the “clinical finding at check-up” value ([4]; Patient A 3.20, tooth 47 apical periodontitis, not gangrenous, root canal insert gel 100 mg/ml, check-up after 8 days) is reported as “patient symptom-free” and the “clinical finding at check-up” value ([4]; Patient A 3.22, tooth 35 apical periodontitis, not gangrenous, root canal insert gel 50 mg/ml, check-up after 10 days) is reported as “patient symptom-free”.
In the case of `COc1cccc(OC)c1C(=O)N[C@@H]1C(=O)N2[C@@H]1SC(C)(C)[C@@H]2C(=O)O` [methicillin], the “increase of resistance after the treatment” value [7] is listed as “two-fold”.
For `CO/N=C1\CN(c2nc3c(cc2F)c(=O)c(C(=O)O)cn3C2CC2)CC1CN` (stereo not drawn) [gemifloxacin mesylate, 7-[(4Z)-3-(aminomethyl)-4-(methoxyimino)-1-pyrrolidinyl]-1-cyclopropyl-6-fluoro-1,4-dihydro-4-oxo-1,8-naphtyridine-3-carboxylic acid], the “clinical finding at check-up” value ([2]; Patient A 1.13, gel 25 mg/ml, repetition of insert, check-up after 4 days) was “tooth vital, patient symptom-free” and the “clinical finding at check-up” value ([2]; Patient A 1.13, tooth 14, pellet insert gel 25 mg/ml, check-up after 3 weeks) was “still slight discomfort”.
